Results taken from patent publication EP4559463A1, “EDARAVONE OR ITS SALTS FOR USE IN THE TREATMENT OF OXIDATIVE STRESS-MEDIATED NEURODEGENERATIVE DISORDERS” (Ferrer Internacional, S.A., priority 2023, dated 2025).
“Also recorded” adds a separate entry of the source. Where two headings read alike, the source gives them in different places.

Legend:
[1] = test system: dogs; details: cited from earlier work
[2] = test system: monkeys; details: continuous i.v. infusion of 1000 mg/kg/day, 28 days; cited from earlier work
[3] = test system: patients with Amyotrophic Lateral Sclerosis (ALS); assay: Nerve Conduction Study (NCS) within the clinical study; format: in vivo, human; details: for Sural-Radial Amp Ratio (SRAR), Shift from Baseline: Low to Low / Sural-Radial Amp Ratio (SRAR), Shift from Baseline: Low to Normal / Sural-Radial Amp Ratio (SRAR), Shift from Baseline: Normal to Low / Sural-Radial Amp Ratio (SRAR), Shift from Baseline: Normal to Normal / Sural nerve - SNAP Amp, Shift from Baseline: Low to Low / Sural nerve - SNAP Amp, Shift from Baseline: Low to Normal / Sural nerve - SNAP Amp, Shift from Baseline: Normal to Low / Sural nerve - SNAP Amp, Shift from Baseline: Normal to Normal: blinded pool edaravone/placebo 2:1
Experimental: A centralized evaluation was performed by neurophysiologists to avoid any bias between sites and to guarantee the safety of patients. The NCS was initially performed for the first 60 enrolled patients at screening, and on weeks 4, 12, and 24. […] NCS main criteria for neuropathy are decreased sural nerve SNAP (sensory nerve action potential) amplitudes or decreased sural/radial nerve amplitude ratio (SRAR), although all data is assessed globally. […] The fact that most of the patients show no change in these values, i.e., that they start with 'normal' and remain 'normal' is a sign of lack of neurotoxicity of the treatment. The appearance of neuropathy may also occur at the normal population for other causes such as diabetes or alcoholism, totally unrelated to any treatment. The NCS protocol evaluates the sensory nerve action potential (SNAP) amplitudes using standard ring-electrodes and predefined sites for both stimulus (antidromic) and recording sites, including standardized distances that also apply for the inter-electrode distances. […] These measures eliminate any unwanted variation due to instrumentational differences. NCS data is evaluated independently at a single specialized unit taking into account reference values provided by participating sites and using age-adjusted reference values. Recordings can be performed on a standard type of electromyograph (EMG) equipment (e.g., Natus Nicolet EDX, Nicolet Viking, Dantec Keypoint, TECA Synergy, Cadwell). The following steps were followed to perform the NCS assessment: • Recording and documentation of temperature at start of the assessment at hand and foot respectively. Limb temperature should be ≥ 31°C, otherwise warming may be considered or alternatively accepted correction factor for decreased temperature could be done. • Unilateral recording of sensory responses of the following nerves (hand, followed by lower limb) was carried out: • ∘ Median nerve (hand, dig II). The distance from the stimulus and recording electrode should be recorded. • ∘ Ulnar nerve (hand, dig V). The distance from the stimulus and recording electrode should be recorded. • ∘ Radial nerve (back of the hand). A standardized distance stimulus-recording electrode of 12 cm should be used. • ∘ Sural nerve (leg, lateral malleolus). A standardized distance stimulus-recording electrode of 12 cm should be used. • Recording of sensory responses were carried out using standardized sides (left or right) for stimulation (assessments were performed on one side only, the same side for each subject was used throughout the study). Electrodes were placed at an interelectrode distance of 2 cm. […] For each nerve, sensory nerve action potential (SNAP) amplitudes were evaluated. Antidromic stimulus were provided to the subjects. Required quality of the NCS included: optimization of the recordings, ensuring flat base line without a slope, omitting stimulus artifacts and background noise, so that markers could be placed appropriately, and true SNAP amplitude values could be obtained accurately. The NCS Ranges of normality considered for this clinical study for SNAP Amp (sensory nerve action potential amplitude) and SCV (sensory conduction velocity) are shown below: Table 4 Normal values for the sensory nerve action potential amplitude (SNAP Amp) for the sural nerve are values higher than 8 µV for subjects with less than 40 years of age, higher than 5 µV for subjects with 40-60 years of age, and higher than 2 µV for subjects with more than 60 years of age. Normal values for the sural-radial Amp ratio (SRAR) are values higher than 0.45 for subjects with 18-39 years, higher than 0.32 for subjects with 40-59 years and higher than 0.19 for subjects with 60 or more years of age.

[4] = test system: dogs; details: continuous i.v. infusion, cited from earlier work
[5] = test system: beagle dogs; details: continuous edaravone infusion; cited from earlier work
[6] = Vitamin B6 monitoring (plasma pyridoxal 5'-phosphate) within the clinical study; format: in vivo, human; parameters: Plasma vitamin B6 (pyridoxal 5'-phosphate), Change from baseline, Median / Plasma vitamin B6 (pyridoxal 5'-phosphate), Change from baseline, Mean: unit not given here; details: for Plasma vitamin B6 (pyridoxal 5'-phosphate), Observed value, Median / Plasma vitamin B6 (pyridoxal 5'-phosphate), Observed value, Mean: no unit in table
Experimental: Therefore, potential neurotoxicity by NCS assessment and by PLP levels during the conduct of the current study was monitored.
Plasmatic concentration of vitamin B6 was monitored at each visit. The normal range of plasma concentration of vitamin B6 in humans (measured as pyridoxal 5'-phosphate) is […], values below this range are considered 'low' and values above, 'high'. In the inclusion visit at time zero patients were classified as 'normal', 'low' or 'high' and the change of this classification was assessed at each visit.
The fact that most of the patients show no change in the classification as 'normal', 'low', or 'high' during the study is a sign of low neurotoxicity of the product. This is the case for patient showing no shift from baseline, for instance 'Normal to Normal' patients.

[7] = test system: patients with Amyotrophic Lateral Sclerosis (ALS); assay: Clinical assessment of neuropathy in the clinical study of edaravone granules for oral solution; format: in vivo, human
Experimental: A clinical study was started to investigate the efficacy and safety of 100 mg of edaravone granules for oral solution (composition shown in table 1 above) in 300 patients with Amyotrophic Lateral Sclerosis (ALS) following treatment for 48 or 72 weeks. The first 100 subjects enrolled will have either 72 weeks of follow-up or have reached an intercurrent event, and the rest (about two thirds of enrolled patients) will be followed up to 48 weeks (or have reached an intercurrent event).
During the treatment, the participants are randomly assigned to receive a daily dose of 100 mg of either edaravone (composition shown in table 1 above) or placebo at a ratio of 2:1 (i.e., two thirds of the patients receive the edaravone formulation and one third receives placebo) for 72 weeks. The study medication, both the placebo and edaravone, is available in single-dose sachets, which must be dissolved in water and taken orally once daily in the morning after a lapse of at least 2 hours from the last meal consumption.
Several authors and regulatory agencies (see for instance EMA/CHMP/290284/2019, page 134) consider that monitoring of the levels of pyridoxal 5'-phosphate (PLP), the active form of vitamin B6, and testing of motor or sensory nerve conduction, such as Nerve Conduction Studies (NCS) described below, should be carried out in order to allow for early detection of neurotoxicity. In addition to this, clinical assessment of neuropathy of patients was carried out by neurologist.
Moreover, the percentage of neuropathy found in patients suffering from other chronic diseases such as diabetes, HIV infection or alcoholism is higher than 20 %. When the blinding of the study is broken, the specific percentages of neuropathy could be linked to the edaravone and placebo arms.

[8] = Visit 1 (Baseline, before treatment), N=163
[9] = Visit 2 (Week 4), N=159, blinded pool edaravone/placebo 2:1
[10] = Visit 3 (Week 12), n=109, blinded pool edaravone/placebo 2:1
[11] = Visit 4 (Week 24), n=59, blinded pool edaravone/placebo 2:1
[12] = Visit 5 (Week 36), n=12, blinded pool edaravone/placebo 2:1

CC1=NN(c2ccccc2)C(=O)C1 [edaravone, 5-methyl-2-phenyl-4H-pyrazol-3-one]
levels of pyridoxal 5'-phosphate (PLP) ([1]; continuous i.v. infusions of 1000 mg/kg/day): reduced | onset of the axonal nerve fibre degenerations ([1]; continuously infused i.v. dose 120 mg/kg/day): 15 days | onset of the axonal nerve fibre degenerations ([1]; continuously infused i.v. dose 300 mg/kg/day): 11 days | histological correlate in the central and peripheral nervous system [2]: minimal to severe nerve fibre degenerations | motor deficits, time of appearance [2]: third and fourth week | Sural-Radial Amp Ratio (SRAR), Shift from Baseline: Low to Low ([3]; Visit 2 (Week 4), N=165): 9 (5.5) n (%) | Sural-Radial Amp Ratio (SRAR), Shift from Baseline: Low to Normal ([3]; Visit 2 (Week 4), N=165): 8 (4.8) n (%) | Sural-Radial Amp Ratio (SRAR), Shift from Baseline: Normal to Low ([3]; Visit 2 (Week 4), N=165): 6 (3.6) n (%) | Sural-Radial Amp Ratio (SRAR), Shift from Baseline: Normal to Normal ([3]; Visit 2 (Week 4), N=165): 142 (86.1) n (%) | Sural nerve - SNAP Amp, Shift from Baseline: Low to Low ([3]; Visit 2 (Week 4), N=167): 3 (1.8) n (%) | Sural nerve - SNAP Amp, Shift from Baseline: Low to Normal ([3]; Visit 2 (Week 4), N=167): 0 (0.0) n (%) | Sural nerve - SNAP Amp, Shift from Baseline: Normal to Low ([3]; Visit 2 (Week 4), N=167): 2 (1.2) n (%) | Sural nerve - SNAP Amp, Shift from Baseline: Normal to Normal ([3]; Visit 2 (Week 4), N=167): 162 (97.0) n (%) | Sural-Radial Amp Ratio (SRAR), Shift from Baseline: Low to Low ([3]; Visit 3 (Week 12), N=112): 5 (4.5) n (%) | Sural-Radial Amp Ratio (SRAR), Shift from Baseline: Low to Normal ([3]; Visit 3 (Week 12), N=112): 4 (3.6) n (%) | Sural-Radial Amp Ratio (SRAR), Shift from Baseline: Normal to Low ([3]; Visit 3 (Week 12), N=112): 10 (8.9) n (%) | Sural-Radial Amp Ratio (SRAR), Shift from Baseline: Normal to Normal ([3]; Visit 3 (Week 12), N=112): 93 (83.0) n (%) | Sural nerve - SNAP Amp, Shift from Baseline: Low to Low ([3]; Visit 3 (Week 12), N=115): 2 (1.7) n (%) | Sural nerve - SNAP Amp, Shift from Baseline: Low to Normal ([3]; Visit 3 (Week 12), N=115): 0 (0.0) n (%) | Sural nerve - SNAP Amp, Shift from Baseline: Normal to Low ([3]; Visit 3 (Week 12), N=115): 3 (2.6) n (%) | Sural nerve - SNAP Amp, Shift from Baseline: Normal to Normal ([3]; Visit 3 (Week 12), N=115): 110 (95.7) n (%) | Sural-Radial Amp Ratio (SRAR), Shift from Baseline: Low to Low ([3]; Visit 4 (Week 24), N=59): 4 (6.8) n (%) | Sural-Radial Amp Ratio (SRAR), Shift from Baseline: Low to Normal ([3]; Visit 4 (Week 24), N=59): 1 (1.7) n (%) | Sural-Radial Amp Ratio (SRAR), Shift from Baseline: Normal to Low ([3]; Visit 4 (Week 24), N=59): 4 (6.8) n (%) | Sural-Radial Amp Ratio (SRAR), Shift from Baseline: Normal to Normal ([3]; Visit 4 (Week 24), N=59): 50 (84.7) n (%) | Sural nerve - SNAP Amp, Shift from Baseline: Low to Low ([3]; Visit 4 (Week 24), N=60): 0 (0.0) n (%) | Sural nerve - SNAP Amp, Shift from Baseline: Low to Normal ([3]; Visit 4 (Week 24), N=60): 0 (0.0) n (%) | Sural nerve - SNAP Amp, Shift from Baseline: Normal to Low ([3]; Visit 4 (Week 24), N=60): 3 (5.0) n (%) | Sural nerve - SNAP Amp, Shift from Baseline: Normal to Normal ([3]; Visit 4 (Week 24), N=60): 57 (95.0) n (%) | main criteria for neuropathy: decreased sural nerve SNAP amplitudes or decreased sural/radial nerve amplitude ratio (SRAR) ([3]; at baseline and at different times during the study): not found in most of the patients | onset of dose-dependent impaired motor function ([4]; 300 mg/kg/day): 13 days | onset of dose-dependent impaired motor function ([4]; ≥60 mg/kg/day): 18 days of treatment | finding associated with the loss of motor function [4]: axonal degeneration of peripheral nerves fibres and in the CNS | plasma levels of vitamin B6 [5]: decreasing plasma levels of vitamin B6 | Plasma vitamin B6 (pyridoxal 5'-phosphate), Observed value, Median ([6]; Screening (before treatment), n=182): 41.50 | Plasma vitamin B6 (pyridoxal 5'-phosphate), Observed value, Mean ([6]; Screening (before treatment), n=182, normal range 12-128 ng/L): 74.90 | Plasma vitamin B6 (pyridoxal 5'-phosphate), Observed value, Mean [6, 8]: 76.6 | Plasma vitamin B6 (pyridoxal 5'-phosphate), Observed value, Median [6, 8]: 41.0 | Plasma vitamin B6 (pyridoxal 5'-phosphate), Change from baseline, Mean [6, 9]: 0.5 | Plasma vitamin B6 (pyridoxal 5'-phosphate), Change from baseline, Median [6, 9]: 2.0 | Plasma vitamin B6 (pyridoxal 5'-phosphate), Observed value, Mean [6, 9]: 77.10 | Plasma vitamin B6 (pyridoxal 5'-phosphate), Observed value, Median [6, 9]: 43.0 | Plasma vitamin B6 (pyridoxal 5'-phosphate), Change from baseline, Mean [6, 10]: -6.8 | Plasma vitamin B6 (pyridoxal 5'-phosphate), Change from baseline, Median [6, 10]: 2.0 | Plasma vitamin B6 (pyridoxal 5'-phosphate), Observed value, Mean [6, 10]: 69.80 | Plasma vitamin B6 (pyridoxal 5'-phosphate), Observed value, Median [6, 10]: 43.0 | Plasma vitamin B6 (pyridoxal 5'-phosphate), Change from baseline, Mean [6, 11]: -0.7 | Plasma vitamin B6 (pyridoxal 5'-phosphate), Change from baseline, Median [6, 11]: 4.0 | Plasma vitamin B6 (pyridoxal 5'-phosphate), Observed value, Mean [6, 11]: 75.9 | Plasma vitamin B6 (pyridoxal 5'-phosphate), Observed value, Median [6, 11]: 45.0 | Plasma vitamin B6 (pyridoxal 5'-phosphate), Change from baseline, Mean [6, 12]: 19.2 | Plasma vitamin B6 (pyridoxal 5'-phosphate), Change from baseline, Median [6, 12]: 33.5 | Plasma vitamin B6 (pyridoxal 5'-phosphate), Observed value, Mean [6, 12]: 95.8 | Plasma vitamin B6 (pyridoxal 5'-phosphate), Observed value, Median [6, 12]: 74.5 | plasmatic concentration of vitamin B6 versus baseline ([6]; monitored at each visit): do not show a decrease; also recorded: not reduced from baseline | patients showing clinical signs of neuropathy ([7]; 313 randomized patients, blinded pool edaravone/placebo 2:1, 100 mg oral once daily, treated 6 months to one year and 7 months): 2.2% | percentage of neuropathy in patients compared with normal population ([7]; clinical trial with edaravone, normal population about 8 %): not higher than the percentage found in the normal population | number of patients showing clinical signs of neuropathy ([7]; out of 313 randomized patients, blinded pool edaravone/placebo 2:1, treated 6 months to one year and 7 months): 7
